Tests used:
activated BTK enzyme = target: T1, activated BTK enzyme (Homo sapiens, UniProt Q06187); experiment: Omnia assay for potency assessment against BTK; type: biochemical; conditions: BTK inhibition assay; [BTK]=5 nM, [ATP]=40 μM, [Y5-Sox]=10 μM
T1 construct: purchased Life Technologies PV3363
Procedure, shortened: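 Activated BTK (5 nM) was pre-incubated 30 min at room temperature with compound, then reacted with 40 μM ATP (KMapp ~36 μM) and 10 μM Y5-Sox peptide in Tris pH 7.5/MgCl2/EGTA/DTT buffer. Sox fluorescence (ex360/em485) followed for 60 min; IC50 from initial velocities (~0–30 min) by variable-slope fit.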

[1] = target: T2, BTK in Ramos human Burkitt lymphoma cells (Homo sapiens, UniProt Q06187); experiment: BTK Ramos cellular assay (BTK occupancy); type: cell-based; conditions: concentration producing 50% occupancy of BTK, 1 hour incubation with compound
T2 construct: Compounds of this invention were assayed in Ramos human Burkitt lymphoma cells; endogenous in cells; host or cells: Ramos human Burkitt lymphoma cells
Procedure, shortened: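 Ramos cells at 2×10^6 cells/mL in serum-free medium treated 1 hour with compound (500 to 0.7 nM final), then lysed. Free BTK captured by biotinylated covalent probe (1 μM final, 1 h) on streptavidin plate, detected by anti-Btk ELISA at OD 450 nm against recombinant Btk standard, normalized to total protein; value is concentration giving 50% occupancy.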

T2 sequence (Q06187 whole entry): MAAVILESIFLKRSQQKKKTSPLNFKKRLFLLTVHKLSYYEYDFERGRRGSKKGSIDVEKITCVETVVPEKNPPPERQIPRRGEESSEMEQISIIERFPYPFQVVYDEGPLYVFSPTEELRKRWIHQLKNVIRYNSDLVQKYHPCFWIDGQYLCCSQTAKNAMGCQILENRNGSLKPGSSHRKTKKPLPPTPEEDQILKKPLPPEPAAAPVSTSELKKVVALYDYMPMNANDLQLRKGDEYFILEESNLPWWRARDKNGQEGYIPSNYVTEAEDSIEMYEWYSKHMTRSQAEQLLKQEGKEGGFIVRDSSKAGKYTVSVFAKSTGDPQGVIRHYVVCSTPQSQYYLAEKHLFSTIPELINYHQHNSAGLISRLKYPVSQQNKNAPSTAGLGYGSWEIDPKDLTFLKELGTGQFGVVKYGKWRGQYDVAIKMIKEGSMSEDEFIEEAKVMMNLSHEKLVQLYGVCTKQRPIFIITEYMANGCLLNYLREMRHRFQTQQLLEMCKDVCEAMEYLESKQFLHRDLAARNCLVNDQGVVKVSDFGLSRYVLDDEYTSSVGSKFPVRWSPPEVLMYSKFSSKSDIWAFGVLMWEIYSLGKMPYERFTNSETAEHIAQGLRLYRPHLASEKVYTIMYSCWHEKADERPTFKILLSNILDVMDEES
T1 sequence (Q06187 whole entry): as above

Row | Compound | IC50 (activated BTK enzyme) [µM] | EC50 [1] [µM] | melting point [°C]
1 | C=CC(=O)N1CCC[C@@H](Nc2nc(Nc3ccc4c(c3)CN(C)C4=O)ncc2F)C1 [Compound I-61, (R)-5-(4-(1-Acryloylpiperidin-3-ylamino)-5-fluoropyrimidin-2-ylamino)-2-methylisoindolin-1-one] | < 0.01 | 0.01 to 0.1 | 120 to 122
2 | C=CC(=O)N1CCC[C@@H](Nc2nc(Nc3ccc4c(c3)C(=O)N(C)C4)ncc2F)C1 [Compound I-62] | < 0.01 | 0.101 to 1 | 
3 | C=CC(=O)N1CCC[C@@H](Nc2nc(Nc3ccc4c(c3)C(=O)N(C)C4=O)ncc2F)C1 [Compound I-63, (R)-5-((4-((1-Acryloylpiperidin-3-yl)amino)-5-fluoropyrimidin-2-yl)amino)-2-methylisoindoline-1,3-dione] | < 0.01 | 0.01 to 0.1 | 
4 | C=CC(=O)N1CCC[C@@H](Nc2nc(Nc3ccc4c(c3)CN(C)C4)ncc2C(F)(F)F)C1 [Compound I-64, (R)-1-(3-((2-((2-Methylisoindolin-5-yl)amino)-5-(trifluoromethyl)pyrimidin-4-yl)amino)piperidin-1-yl)prop-2-en-1-one] | < 0.01 | < 0.01 | 
5 | C=CC(=O)N1CCC[C@@H](Nc2nc(Nc3ccc4c(c3)CNC4)ncc2C(F)(F)F)C1 [Compound I-65, (R)-1-(3-((2-(Isoindolin-5-ylamino)-5-(trifluoromethyl)pyrimidin-4-yl)amino)piperidin-1-yl)prop-2-en-1-one] | < 0.01 | < 0.01 | 
6 | C#CCN1Cc2ccc(Nc3ncc(F)c(N[C@@H]4CCCN(C(=O)C=C)C4)n3)cc2C1 [Compound I-67, (R)-1-(3-((5-Fluoro-2-((2-(prop-2-yn-1-yl)isoindolin-5-yl)amino)pyrimidin-4-yl)amino)piperidin-1-yl)prop-2-en-1-one] | < 0.01 | 0.01 to 0.1 | 

More lines, now with the values ahead:

Row | IC50 (activated BTK enzyme) [µM] | EC50 [1] [µM] | melting point [°C] | Compound
7 | < 0.01 | < 0.01 | 80 to 82 | C=CC(=O)N1CCC[C@@H](Nc2nc(Nc3ccc4c(c3)CN(CC3CC3)CC4)ncc2F)C1 [Compound I-47, (R)-1-(3-(2-(2-(Cyclopropylmethyl)-1,2,3,4-tetrahydroisoquinolin-7-ylamino)-5-fluoropyrimidin-4-ylamino)piperidin-1-yl)prop-2-en-1-one]
8 | < 0.01 | < 0.01 | 105 to 107 | C=CC(=O)N1CCC[C@@H](Nc2nc(Nc3ccc4c(c3)CN(C3CC3)CC4)ncc2F)C1 [Compound I-48, (R)-1-(3-(2-(2-Cyclopropyl-1,2,3,4-tetrahydroisoquinolin-7-ylamino)-5-fluoropyrimidin-4-ylamino)piperidin-1-yl)prop-2-en-1-one]
9 | < 0.01 | 0.01 to 0.1 | 118 to 121 | C=CC(=O)N1CCC[C@@H](Nc2nc(Nc3ccc4c(c3)CN(C(C)(C)C)CC4)ncc2F)C1 [Compound I-49, (R)-1-(3-(2-(2-tert-Butyl-1,2,3,4-tetrahydroisoquinolin-7-ylamino)-5-fluoropyrimidin-4-ylamino)piperidin-1-yl)prop-2-en-1-one]
10 | < 0.01 | 0.01 to 0.1 | 103 to 105 | C=CC(=O)N1CCC[C@@H](Nc2nc(Nc3ccc4c(c3)CN(CC3COC3)CCC4)ncc2F)C1 [Compound I-56, (R)-1-(3-(5-Fluoro-2-(2-(oxetan-3-ylmethyl)-2,3,4,5-tetrahydro-1H-benzo[c]azepin-8-ylamino)pyrimidin-4-ylamino)piperidin-1-yl)prop-2-en-1-one]
11 | < 0.01 | 0.01 to 0.1 |  | C=CC(=O)N1CCC[C@@H](Nc2nc(Nc3ccc4c(c3)CCNCC4)ncc2F)C1 [Compound I-57, (R)-1-(3-(5-Fluoro-2-(2,3,4,5-tetrahydro-1H-benzo[d]azepin-7-ylamino)pyrimidin-4-ylamino)piperidin-1-yl)prop-2-en-1-one]
12 | < 0.01 | < 0.01 | 102 to 104 | C=CC(=O)N1CCC[C@@H](Nc2nc(Nc3ccc4c(c3)CCN(C)CC4)ncc2F)C1 [Compound I-58, (R)-1-(3-(5-Fluoro-2-(3-methyl-2,3,4,5-tetrahydro-1H-benzo[d]azepin-7-ylamino)pyrimidin-4-ylamino)piperidin-1-yl)prop-2-en-1-one]
13 | < 0.01 | < 0.01 | 104 to 106 | C=CC(=O)N1CCC[C@@H](Nc2nc(Nc3ccc4c(c3)CCN(CC3COC3)CC4)ncc2F)C1 [Compound I-59, (R)-1-(3-(5-Fluoro-2-(3-(oxetan-3-ylmethyl)-2,3,4,5-tetrahydro-1H-benzo[d]azepin-7-ylamino)pyrimidin-4-ylamino)piperidin-1-yl)prop-2-en-1-one]
14 | < 0.01 | 0.01 to 0.1 |  | C=CC(=O)N1CCC[C@@H](Nc2nc(Nc3ccc4c(c3)CCN(C3CC3)CC4)ncc2F)C1 [Compound I-60, (R)-1-(3-(2-(3-Cyclopropyl-2,3,4,5-tetrahydro-1H-benzo[d]azepin-7-ylamino)-5-fluoropyrimidin-4-ylamino)piperidin-1-yl)prop-2-en-1-one]
